Data: US20170290774A1, “NEUROKININ-1 RECEPTOR ANTAGONIST COMPOSITION FOR TREATMENT OF DISEASES AND CONDITIONS OF THE RESPIRATORY TRACT” (PLUS VITECH, S.L., priority 2014, published 2017)
Where “and” joins values, the source holds several entries; their conditions need not be identical. Identical values can stand only once.

Test: Tissue concentration of aprepitant by HPLC after oral or inhaled administration to rabbits
Format: in vivo, New Zealand albino rabbits
Details: for concentration at 7 days: New Zealand White (albino), rabbit
Protocol: Herein, New Zealand albino rabbits (New Zealand White Rabbits) with an initial average weight of approximately 3 kg were used. The rabbits were fed ad libitum and were monitored daily to check that signs of toxicity had not appeared. […] This mixture was administered as an aerosol to the airways of a group of 3 of said rabbits (Group 5) in a dose of 0.05 mg/kg body weight per day, to another group of three rabbits (Group 6) in a dose of 0.1 mg/kg body weight per day, to another group of three rabbits (group 7) in a dose of 0.2 mg/kg body weight per day and to another group of three rabbits (Group 8) in a dose of 0.4 mg/kg body weight per day. […] After seven days of treatment all animals were euthanized and necropsied. […] Samples were taken at the peripheral level of the lung parenchyma, just below the pleural surface. Tissue samples were also taken from the nasal cavity, pharynx, larynx and bronchi. […] The average is the arithmetic average calculated for each row or column of each table. The SD is the standard deviation, calculated for each row or column of each table.

[1] = Group 1, oral 10 mg/kg per day, seven days, individual cases, 10 mg/kg/day
[2] = Group 2, oral 40 mg/kg per day, seven days, individual cases, 40 mg/kg/day
[3] = Group 3, oral 80 mg/kg per day, seven days, individual cases, 80 mg/kg/day
[4] = Group 4, oral 100 mg/kg per day, seven days, individual cases, 100 mg/kg/day
[5] = Group 5, inhalation (aerosol, olive oil) 0.05 mg/kg per day, seven days, individual cases, 0.05 mg/kg/day
[6] = Group 6, inhalation (aerosol, olive oil) 0.1 mg/kg per day, seven days, individual cases, 0.1 mg/kg/day
[7] = Group 7, inhalation (aerosol, olive oil) 0.2 mg/kg per day, seven days, individual cases, 0.2 mg/kg/day
[8] = Group 8, inhalation (aerosol, olive oil) 0.4 mg/kg per day, seven days, individual cases, 0.4 mg/kg/day

For `C[C@@H](OC1OCCN(Cc2nc(=O)[nH][nH]2)C1c1ccc(F)cc1)c1cc(C(F)(F)F)cc(C(F)(F)F)c1` (stereo in doubt) [Aprepitant, 5-([(2R,3S)-2-((R)-1-[3,5-bis(trifluoromethyl)phenyl]ethoxy)-3-(4-fluorophenyl)morpholino]methyl)-1H-1,2,4-triazol-3(2H)-one], the “Lung concentration of aprepitant LIPD (right inferior lobe)” value (from here on “Lung concentration of aprepitant LIPD”) [1] was 0.9 micrograms of aprepitant per gram of lung tissue and 1.0 micrograms of aprepitant per gram of lung tissue, the “Lung concentration of aprepitant LIPI (left inferior lobe)” value (shortened to “Lung concentration of aprepitant LIPI”) [1] was 1.4 micrograms of aprepitant per gram of lung tissue and 1.1 micrograms of aprepitant per gram of lung tissue and the “Lung concentration of aprepitant LMPD (right middle lobe)” value (shortened to “Lung concentration of aprepitant LMPD”) [1] was 1.4 micrograms of aprepitant per gram of lung tissue and 1.5 micrograms of aprepitant per gram of lung tissue. The “Lung concentration of aprepitant LSPD (right superior lobe)” value (from here on “Lung concentration of aprepitant LSPD”) [1] was 1.1 micrograms of aprepitant per gram of lung tissue and 0.4 micrograms of aprepitant per gram of lung tissue and 1.2 micrograms of aprepitant per gram of lung tissue, the “Lung concentration of aprepitant LSPI (left superior lobe)” value (shortened to “Lung concentration of aprepitant LSPI”) [1] was 1.0 micrograms of aprepitant per gram of lung tissue and 0.5 micrograms of aprepitant per gram of lung tissue and the “Lung concentration of aprepitant LIPD” value [2] was 3.1 micrograms of aprepitant per gram of lung tissue and 4.2 micrograms of aprepitant per gram of lung tissue. The “Lung concentration of aprepitant LIPI” value [2] was 2.8 micrograms of aprepitant per gram of lung tissue and 4.0 micrograms of aprepitant per gram of lung tissue, the “Lung concentration of aprepitant LMPD” value [2] was 2.9 micrograms of aprepitant per gram of lung tissue and 5.1 micrograms of aprepitant per gram of lung tissue and the “Lung concentration of aprepitant LSPD” value [2] was 4.1 micrograms of aprepitant per gram of lung tissue and 3.3 micrograms of aprepitant per gram of lung tissue. The “Lung concentration of aprepitant LSPI” value [2] was 4.2 micrograms of aprepitant per gram of lung tissue and 3.6 micrograms of aprepitant per gram of lung tissue, the “Lung concentration of aprepitant LIPD” value [3] was 6.3 micrograms of aprepitant per gram of lung tissue and 5.3 micrograms of aprepitant per gram of lung tissue and the “Lung concentration of aprepitant LIPI” value [3] was 3.4 micrograms of aprepitant per gram of lung tissue and 4.3 micrograms of aprepitant per gram of lung tissue. For the same molecule, the “Lung concentration of aprepitant LMPD” value [3] was 5.5 micrograms of aprepitant per gram of lung tissue and 5.3 micrograms of aprepitant per gram of lung tissue, the “Lung concentration of aprepitant LSPD” value [3] was 4.2 micrograms of aprepitant per gram of lung tissue and 3.3 micrograms of aprepitant per gram of lung tissue and the “Lung concentration of aprepitant LSPI” value [3] was 5.1 micrograms of aprepitant per gram of lung tissue. For the same molecule, the “Lung concentration of aprepitant LIPD” value [4] was 5.9 micrograms of aprepitant per gram of lung tissue and 6.1 micrograms of aprepitant per gram of lung tissue, the “Lung concentration of aprepitant LIPI” value [4] was 4.8 micrograms of aprepitant per gram of lung tissue and 5.1 micrograms of aprepitant per gram of lung tissue and the “Lung concentration of aprepitant LMPD” value [4] was 5.1 micrograms of aprepitant per gram of lung tissue and 5.4 micrograms of aprepitant per gram of lung tissue. For the same molecule, the “Lung concentration of aprepitant LSPD” value [4] was 4.8 micrograms of aprepitant per gram of lung tissue and 4.3 micrograms of aprepitant per gram of lung tissue, the “Lung concentration of aprepitant LSPI” value [4] was 5.2 micrograms of aprepitant per gram of lung tissue and 4.5 micrograms of aprepitant per gram of lung tissue and the “Lung concentration of aprepitant LIPD” value [5] was 1.5 micrograms of aprepitant per gram of lung tissue and 1.6 micrograms of aprepitant per gram of lung tissue. The “Lung concentration of aprepitant LIPI” value [5] was 1.5 micrograms of aprepitant per gram of lung tissue and 1.4 micrograms of aprepitant per gram of lung tissue, the “Lung concentration of aprepitant LMPD” value [5] was 1.6 micrograms of aprepitant per gram of lung tissue and 1.5 micrograms of aprepitant per gram of lung tissue and the “Lung concentration of aprepitant LSPD” value [5] was 1.4 micrograms of aprepitant per gram of lung tissue and 1.5 micrograms of aprepitant per gram of lung tissue. The “Lung concentration of aprepitant LSPI” value [5] was 1.5 micrograms of aprepitant per gram of lung tissue, the “Lung concentration of aprepitant LMPD” value (Group 6, inhalation (aerosol, olive oil) 0.1 mg/kg per day, seven days, individual cases) was 2.9 micrograms of aprepitant per gram of lung tissue and the “Lung concentration of aprepitant LIPD” value [6] was 2.9 micrograms of aprepitant per gram of lung tissue and 2.8 micrograms of aprepitant per gram of lung tissue. The “Lung concentration of aprepitant LIPI” value [6] was 2.8 micrograms of aprepitant per gram of lung tissue and 2.9 micrograms of aprepitant per gram of lung tissue, the “Lung concentration of aprepitant LSPD” value [6] was 2.8 micrograms of aprepitant per gram of lung tissue and 2.9 micrograms of aprepitant per gram of lung tissue and the “Lung concentration of aprepitant LSPI” value [6] was 2.7 micrograms of aprepitant per gram of lung tissue and 2.8 micrograms of aprepitant per gram of lung tissue. For the same molecule, the “Lung concentration of aprepitant LIPD” value (Group 7, inhalation (aerosol, olive oil) 0.2 mg/kg per day, seven days, individual cases) was 6.0 micrograms of aprepitant per gram of lung tissue, the “Lung concentration of aprepitant LIPI” value [7] was 6.0 micrograms of aprepitant per gram of lung tissue and 5.9 micrograms of aprepitant per gram of lung tissue and the “Lung concentration of aprepitant LMPD” value [7] was 6.0 micrograms of aprepitant per gram of lung tissue and 6.1 micrograms of aprepitant per gram of lung tissue. The “Lung concentration of aprepitant LSPD” value [7] was 5.9 micrograms of aprepitant per gram of lung tissue and 6.0 micrograms of aprepitant per gram of lung tissue, the “Lung concentration of aprepitant LSPI” value [7] was 6.1 micrograms of aprepitant per gram of lung tissue and 5.9 micrograms of aprepitant per gram of lung tissue and the “Lung concentration of aprepitant LIPD” value [8] was 10.4 micrograms of aprepitant per gram of lung tissue and 10.0 micrograms of aprepitant per gram of lung tissue. The “Lung concentration of aprepitant LIPI” value [8] was 10.1 micrograms of aprepitant per gram of lung tissue and 9.9 micrograms of aprepitant per gram of lung tissue, the “Lung concentration of aprepitant LMPD” value [8] was 10.1 micrograms of aprepitant per gram of lung tissue and 9.9 micrograms of aprepitant per gram of lung tissue and the “Lung concentration of aprepitant LSPD” value [8] was 10.0 micrograms of aprepitant per gram of lung tissue and 9.8 micrograms of aprepitant per gram of lung tissue. For the same molecule, the “Lung concentration of aprepitant LSPI” value [8] was 10.2 micrograms of aprepitant per gram of lung tissue and 10.0 micrograms of aprepitant per gram of lung tissue, the concentration at 7 days (in vivo, 0.05 mg/kg/day, Lung concentration of aprepitant, Average ± SD of the five lobes per case) was 1400 ng/g and the concentration at 7 days (in vivo, 0.1 mg/kg/day, Lung concentration of aprepitant, Average ± SD of the five lobes per case) was 2800 ng/g. The concentration at 7 days (in vivo, 0.2 mg/kg/day, Lung concentration of aprepitant, Average ± SD of the five lobes per case) was 6020 ng/g, the concentration at 7 days (in vivo, po, 100 mg/kg/day, Lung concentration of aprepitant, Average ± SD of the five lobes per case) was 5240 ng/g and the concentration at 7 days (lung, left inferior lobe, inhaled, 0.05 mg/kg/day, Lung concentration of aprepitant LIPI (left inferior lobe), Group 5, inhalation (aerosol, olive oil) 0.05 mg/kg per day, seven days, individual cases) was 1500 ng/g. For the same molecule, the concentration at 7 days (lung, left inferior lobe, inhaled, 0.05 mg/kg/day, Lung concentration of aprepitant LIPI, Average ± SD of cases, Group 5, inhalation (aerosol, olive oil) 0.05 mg/kg per day, seven days) was 1400 ng/g, the concentration at 7 days (lung, left inferior lobe, inhaled, 0.1 mg/kg/day, Lung concentration of aprepitant LIPI (left inferior lobe), Group 6, inhalation (aerosol, olive oil) 0.1 mg/kg per day, seven days, individual cases) was 2800 ng/g and the concentration at 7 days (lung, left inferior lobe, inhaled, 0.1 mg/kg/day, Lung concentration of aprepitant LIPI, Average ± SD of cases, Group 6, inhalation (aerosol, olive oil) 0.1 mg/kg per day, seven days) was 2800 ng/g. It also gave a concentration at 7 days (lung, left inferior lobe, inhaled, 0.2 mg/kg/day, Lung concentration of aprepitant LIPI (left inferior lobe), Group 7, inhalation (aerosol, olive oil) 0.2 mg/kg per day, seven days, individual cases) of 5900 ng/g, a concentration at 7 days (lung, left inferior lobe, po, 100 mg/kg/day, Lung concentration of aprepitant LIPI (left inferior lobe), Group 4, oral 100 mg/kg per day, seven days, individual cases) of 6100 ng/g and a concentration at 7 days (lung, left inferior lobe, po, 100 mg/kg/day, Lung concentration of aprepitant LIPI, Average ± SD of cases, Group 4, oral 100 mg/kg per day, seven days) of 5300 ng/g. For the same molecule, the concentration at 7 days (lung, left superior lobe, inhaled, 0.05 mg/kg/day, Lung concentration of aprepitant LSPI (left superior lobe), Group 5, inhalation (aerosol, olive oil) 0.05 mg/kg per day, seven days, individual cases) was 1400 ng/g, the concentration at 7 days (lung, left superior lobe, inhaled, 0.05 mg/kg/day, Lung concentration of aprepitant LSPI, Average ± SD of cases, Group 5, inhalation (aerosol, olive oil) 0.05 mg/kg per day, seven days) was 1400 ng/g and the concentration at 7 days (lung, left superior lobe, inhaled, 0.1 mg/kg/day, Lung concentration of aprepitant LSPI (left superior lobe), Group 6, inhalation (aerosol, olive oil) 0.1 mg/kg per day, seven days, individual cases) was 2800 ng/g. It also gave a concentration at 7 days (lung, left superior lobe, inhaled, 0.1 mg/kg/day, Lung concentration of aprepitant LSPI, Average ± SD of cases, Group 6, inhalation (aerosol, olive oil) 0.1 mg/kg per day, seven days) of 2700 ng/g, a concentration at 7 days (lung, left superior lobe, inhaled, 0.2 mg/kg/day, Lung concentration of aprepitant LSPI (left superior lobe), Group 7, inhalation (aerosol, olive oil) 0.2 mg/kg per day, seven days, individual cases) of 6100 ng/g and a concentration at 7 days (lung, left superior lobe, po, 100 mg/kg/day, Lung concentration of aprepitant LSPI (left superior lobe), Group 4, oral 100 mg/kg per day, seven days, individual cases) of 4300 ng/g. For the same molecule, the concentration at 7 days (lung, left superior lobe, po, 100 mg/kg/day, Lung concentration of aprepitant LSPI, Average ± SD of cases, Group 4, oral 100 mg/kg per day, seven days) was 4600 ng/g, the concentration at 7 days (lung, right inferior lobe, inhaled, 0.05 mg/kg/day, Lung concentration of aprepitant LIPD (right inferior lobe), Group 5, inhalation (aerosol, olive oil) 0.05 mg/kg per day, seven days, individual cases) was 1500 ng/g and the concentration at 7 days (lung, right inferior lobe, inhaled, 0.05 mg/kg/day, Lung concentration of aprepitant LIPD, Average ± SD of cases, Group 5, inhalation (aerosol, olive oil) 0.05 mg/kg per day, seven days) was 1500 ng/g. It also gave a concentration at 7 days (lung, right inferior lobe, inhaled, 0.1 mg/kg/day, Lung concentration of aprepitant LIPD (right inferior lobe), Group 6, inhalation (aerosol, olive oil) 0.1 mg/kg per day, seven days, individual cases) of 2800 ng/g, a concentration at 7 days (lung, right inferior lobe, inhaled, 0.1 mg/kg/day, Lung concentration of aprepitant LIPD, Average ± SD of cases, Group 6, inhalation (aerosol, olive oil) 0.1 mg/kg per day, seven days) of 2800 ng/g and a concentration at 7 days (lung, right inferior lobe, inhaled, 0.2 mg/kg/day, Lung concentration of aprepitant LIPD (right inferior lobe), Group 7, inhalation (aerosol, olive oil) 0.2 mg/kg per day, seven days, individual cases) of 6000 ng/g. For the same molecule, the concentration at 7 days (lung, right inferior lobe, inhaled, 0.2 mg/kg/day, Lung concentration of aprepitant LIPD, Average ± SD of cases, Group 7, inhalation (aerosol, olive oil) 0.2 mg/kg per day, seven days) was 6000 ng/g.
